From PMC3914206 come the findings set out here.

Structures are written as SMILES.

What all share (assay type): binding
Design in all cases: KINOMEscan: ABL1(F317L)-phosphorylated / KINOMEscan: ABL1(H396P)-nonphosphorylated / KINOMEscan: ABL1(H396P)-phosphorylated / KINOMEscan: ABL1(M351T)-phosphorylated / KINOMEscan: ABL1(T315I)-phosphorylated / KINOMEscan: ABL1-nonphosphorylated / KINOMEscan: ABL1-phosphorylated / KINOMEscan: ACVR2A / KINOMEscan: ACVR2B / KINOMEscan: ADCK3 / KINOMEscan: ADCK4 / KINOMEscan: AKT1 / KINOMEscan: AKT3 / KINOMEscan: ALK / KINOMEscan: ARK5 / KINOMEscan: AURKA / KINOMEscan: AURKC / KINOMEscan: BIKE / KINOMEscan: BMPR1A / KINOMEscan: BMPR1B / KINOMEscan: BMX / KINOMEscan: BRK / KINOMEscan: BRSK1 / KINOMEscan: BRSK2 / KINOMEscan: CAMK1 / KINOMEscan: CAMK1D / KINOMEscan: CAMK1G / KINOMEscan: CAMK2A / KINOMEscan: CAMK2B / KINOMEscan: AAK1 / KINOMEscan: CAMK2D / KINOMEscan: CAMK2G / KINOMEscan: ABL1(F317I)-nonphosphorylated / KINOMEscan: ABL1(F317I)-phosphorylated / KINOMEscan: ABL1(F317L)-nonphosphorylated: unit: % Ctrl

Experiment [1] deals with T1, panel of 442 kinases (Homo sapiens, UniProt P00519, H396P).
T1 construct: purchased KINOMEscan
Conditions: Compound Concentration 10 µM. The source says:
(§1) We assessed the selectivity of members of this scaffold using the KINOMEscan methodology across a near comprehensive panel of 442 kinases [[18,27]].

Experiment [2] has as its target T2, panel of 442 kinases (Homo sapiens, UniProt P00533, L858R/T790M).
T2 construct: purchased KINOMEscan
Conditions: Compound Concentration 10 µM.
Description: as §1

In experiment [3] the target is T3, panel of 442 kinases (Homo sapiens, UniProt Q8WU08).
T3 construct: purchased KINOMEscan
T3 sequence (Q8WU08 whole entry): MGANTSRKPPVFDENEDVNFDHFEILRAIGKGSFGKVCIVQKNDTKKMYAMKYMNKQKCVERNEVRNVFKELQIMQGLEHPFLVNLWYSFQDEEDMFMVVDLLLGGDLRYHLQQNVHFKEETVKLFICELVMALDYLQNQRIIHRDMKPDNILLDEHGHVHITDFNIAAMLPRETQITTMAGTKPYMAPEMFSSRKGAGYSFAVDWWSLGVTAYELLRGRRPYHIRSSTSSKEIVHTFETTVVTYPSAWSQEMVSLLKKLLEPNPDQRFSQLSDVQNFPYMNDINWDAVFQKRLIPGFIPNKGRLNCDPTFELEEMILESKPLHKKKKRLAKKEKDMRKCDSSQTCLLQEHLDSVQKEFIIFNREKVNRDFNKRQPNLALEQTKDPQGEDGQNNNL
Conditions: kinase YANK1; compound concentration 10 µM.
Description: as §1

In experiment [4] the target is T4, panel of 442 kinases (Homo sapiens, UniProt Q9P0L2).
T4 construct: purchased KINOMEscan
T4 sequence (Q9P0L2 whole entry): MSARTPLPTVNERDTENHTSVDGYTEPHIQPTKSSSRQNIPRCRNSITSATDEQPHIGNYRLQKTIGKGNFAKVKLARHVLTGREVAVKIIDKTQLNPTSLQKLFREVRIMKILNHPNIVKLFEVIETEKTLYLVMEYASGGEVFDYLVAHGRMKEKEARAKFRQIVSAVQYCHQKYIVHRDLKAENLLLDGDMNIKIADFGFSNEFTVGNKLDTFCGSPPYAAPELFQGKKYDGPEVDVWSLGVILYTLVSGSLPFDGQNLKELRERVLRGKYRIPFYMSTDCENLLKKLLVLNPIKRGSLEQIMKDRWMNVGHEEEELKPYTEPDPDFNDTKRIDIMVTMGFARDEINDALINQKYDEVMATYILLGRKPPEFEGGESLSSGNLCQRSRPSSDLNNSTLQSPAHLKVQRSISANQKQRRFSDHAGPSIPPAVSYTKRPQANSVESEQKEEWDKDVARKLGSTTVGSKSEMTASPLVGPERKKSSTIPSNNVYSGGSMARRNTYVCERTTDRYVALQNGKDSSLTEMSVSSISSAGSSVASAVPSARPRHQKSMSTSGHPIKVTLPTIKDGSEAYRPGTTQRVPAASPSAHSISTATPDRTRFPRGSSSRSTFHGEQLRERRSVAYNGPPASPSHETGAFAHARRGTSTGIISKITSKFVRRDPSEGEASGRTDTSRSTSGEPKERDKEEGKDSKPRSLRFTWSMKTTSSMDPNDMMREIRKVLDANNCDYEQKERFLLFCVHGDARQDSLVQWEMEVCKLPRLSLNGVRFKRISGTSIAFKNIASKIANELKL
Conditions: Compound Concentration 10 µM.
Description: as §1

T2 sequence (P00533 25-1210 T790M/L858R): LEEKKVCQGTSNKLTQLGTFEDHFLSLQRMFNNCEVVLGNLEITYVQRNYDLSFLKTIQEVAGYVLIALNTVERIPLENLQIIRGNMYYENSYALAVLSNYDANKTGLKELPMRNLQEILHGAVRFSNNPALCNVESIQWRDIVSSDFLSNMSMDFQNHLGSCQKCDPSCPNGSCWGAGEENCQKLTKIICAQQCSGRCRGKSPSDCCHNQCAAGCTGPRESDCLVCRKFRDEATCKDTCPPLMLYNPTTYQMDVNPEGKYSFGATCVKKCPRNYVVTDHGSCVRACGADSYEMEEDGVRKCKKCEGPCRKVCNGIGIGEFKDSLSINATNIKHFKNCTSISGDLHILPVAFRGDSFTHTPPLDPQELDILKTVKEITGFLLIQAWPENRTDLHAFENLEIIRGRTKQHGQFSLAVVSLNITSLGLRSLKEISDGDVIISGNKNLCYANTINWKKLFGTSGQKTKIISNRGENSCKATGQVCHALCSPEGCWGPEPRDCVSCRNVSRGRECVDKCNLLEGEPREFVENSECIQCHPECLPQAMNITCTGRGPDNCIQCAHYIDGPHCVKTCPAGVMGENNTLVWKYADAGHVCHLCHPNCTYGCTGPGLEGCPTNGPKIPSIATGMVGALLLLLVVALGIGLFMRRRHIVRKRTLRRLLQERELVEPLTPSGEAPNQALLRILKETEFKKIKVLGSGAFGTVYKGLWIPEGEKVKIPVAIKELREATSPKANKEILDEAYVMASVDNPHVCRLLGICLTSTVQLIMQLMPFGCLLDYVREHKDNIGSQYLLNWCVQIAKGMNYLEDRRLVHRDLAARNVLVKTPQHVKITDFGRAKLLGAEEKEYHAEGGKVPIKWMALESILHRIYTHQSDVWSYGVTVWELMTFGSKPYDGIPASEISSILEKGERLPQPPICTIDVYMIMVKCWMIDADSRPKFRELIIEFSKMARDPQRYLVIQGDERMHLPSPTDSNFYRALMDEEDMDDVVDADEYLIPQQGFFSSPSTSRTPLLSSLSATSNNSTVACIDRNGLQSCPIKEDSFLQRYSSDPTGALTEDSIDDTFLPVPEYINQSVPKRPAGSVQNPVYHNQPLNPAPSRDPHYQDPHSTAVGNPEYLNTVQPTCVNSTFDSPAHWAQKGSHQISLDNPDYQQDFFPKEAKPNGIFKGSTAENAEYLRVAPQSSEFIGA

Regarding `COc1cc(C(=O)N2CCC(N3CCN(C)CC3)CC2)ccc1Nc1ncc2c(n1)N(C)c1ccccc1C(=O)N2C` [15 (LRRK2-IN-1)], in experiment [1], the “KINOMEscan: ABL1(H396P)-nonphosphorylated” value came out at 100 and the “KINOMEscan: ABL1(H396P)-phosphorylated” value came to 100. For the same molecule, the “KINOMEscan: EGFR(L858R,T790M)” value in experiment [2] turned out to be 84. Besides, the “% Ctrl, YANK1” value in experiment [3] was found to be 100 % Ctrl. In addition, the “KINOMEscan: MARK1” value in experiment [4] is 87.

`COc1cc(C(=O)N2CCC(N3CCN(C)CC3)CC2)ccc1Nc1ncc2c(n1)N1CCc3cccc(c31)C(=O)N2C` [Compound 24]: in experiment [1], the “KINOMEscan: ABL1(H396P)-nonphosphorylated” value is 34 and the “KINOMEscan: ABL1(H396P)-phosphorylated” value stood at 100. Besides, the “% Ctrl, YANK1” value in experiment [3] came to 100 % Ctrl. In experiment [4], the “KINOMEscan: MARK1” value is on record as 83.

Turning to `COc1cc(C(=O)N2CCC(N3CCN(C)CC3)CC2)ccc1Nc1ncc2c(n1)N(C1CCCC1)c1ccccc1C(=O)N2C` [Compound 25, 11-cyclopentyl-2-((2-methoxy-4-(4-(4-methylpiperazin-1-yl)piperidine-1-carbonyl)phenyl)amino)-5-methyl-5H-benzo[e]pyrimido[5,4-b][1,4]diazepin-6(11H)-one], in experiment [1], the “KINOMEscan: ABL1(H396P)-nonphosphorylated” value was found to be 47 and the “KINOMEscan: ABL1(H396P)-phosphorylated” value came out at 100. Moreover, in experiment [2], the “KINOMEscan: EGFR(L858R,T790M)” value worked out at 100. In addition, the “% Ctrl, YANK1” value in experiment [3] was 100 % Ctrl. For the same molecule, the “KINOMEscan: MARK1” value in experiment [4] is 99.

As to `CCOc1cc(C(=O)N2CCC(N3CCN(C)CC3)CC2)ccc1Nc1ncc2c(n1)N(C1CCCC1)c1ccccc1C(=O)N2C` [Compound 26], in experiment [1], the “KINOMEscan: ABL1(H396P)-nonphosphorylated” value turned out to be 86 and the “KINOMEscan: ABL1(H396P)-phosphorylated” value was 100. Besides, in experiment [2], the “KINOMEscan: EGFR(L858R,T790M)” value is 78. Moreover, the “% Ctrl, YANK1” value in experiment [3] is 100 % Ctrl. For the same molecule, in experiment [4], the “KINOMEscan: MARK1” value amounted to 100.
